Assays:
[1] = tested on: P. aeruginosa; experiment: In vivo efficacy, ceftazidime human simulated regimen, neutropenic lung infection model (ICR mice); set-up: species or system Pseudomonas aeruginosa; details: 24 h
Experimental: Groups of mice were administered the ceftazidime regimen beginning two hours after the initiation of infection. All doses were administered as 0.2 mL subcutaneous injections and consisted of three 8-hour dosing intervals (i.e. 24 hours). To serve as control animals, an additional group of mice were administered normal saline at the same volume, route, and frequency as the treatment regimen. Harvesting and processing of lungs from each animal was done as previously described and efficacy was defined as the change in bacterial density, calculated as the change in log10 bacterial CFU obtained for treated mice after 24 h from that of that starting densities observed in 0 h control animals.

[2] = tested on: P. aeruginosa; experiment: Checkerboard assay, mean FICI; assay type: cell-based
Experimental: (§1) All MIC determinations including those performed in the checkerboard assay were done in cation-adjusted Mueller-Hinton broth (purchased from Becton Dickinson, Oxford UK).
(§2) Initial MIC data were determined by microbroth dilution methods as recommended by CLSI (2012b). Checkerboards were made in accordance with the method given by Pillai et. al., ? Antimicrobial Combinations in Antibiotics, LABORATORY MEDICINE (Lorian Ed., 3rd Ed. (2003)) p. 365-440 as per standard microbroth dilution tests but with agents in combination. […] A final avibactam concentration of 4 mg/L was used throughout the study. Antibacterial agents were combined into microtitre plates using the Evolution III liquid handling system.
(§3) Checkerboard plates were inoculated and incubated in accordance with CLSI guidelines (2012b) at 35±2° C. in ambient air for 16-20 h. MICs were recorded the following day as the lowest concentration or combination of concentrations required to inhibit all visible growth. From the MIC data, FICIs were calculated for each checkerboard according to the method of Meletiadis et. al., Defining Fractional Inhibitory Concentration Index Cutoffs for Additive Interactions Based on Self-Drug Additive Combinations, Monte Carlo Simulation Analysis and in vitro-in vivo Correlation Data for Antifungal Drug Combinations Against Aspergillus fumigatus, AAC 54:602-09 (2010).
(§4) FICI=FICA+FICB=(CA/MICA)+(CB/MICB)
(§5) As each checkerboard gives a number of FICI values, an arithmetic mean is calculated from all values to give the mean FICI for two agents combined against one isolate. Mean FICIs were interpreted by the following criteria given by Odds (2003) which are now the accepted criteria by most journals: […]

[3] = tested on: E. coli; experiment: Checkerboard assay, mean FICI; assay type: cell-based
Experimental: as §1, §2, §3, §4, §5

[4] = tested on: S. aureus; experiment: Checkerboard assay, mean FICI; assay type: cell-based
Experimental: as §1, §2, §3, §4, §5

[5] = tested on: K. pneumoniae; experiment: Checkerboard assay, mean FICI; assay type: cell-based
Experimental: as §1, §2, §3, §4, §5

[6] = tested on: E. cloacae; experiment: Checkerboard assay, mean FICI; assay type: cell-based
Experimental: as §1, §2, §3, §4, §5

[7] = tested on: E. faecalis; experiment: Checkerboard assay, mean FICI; assay type: cell-based
Experimental: as §1, §2, §3, §4, §5

## CC(C)(O/N=C(\C(=O)N[C@@H]1C(=O)N2C(C(=O)[O-])=C(C[n+]3ccccc3)CS[C@H]12)c1csc(N)n1)C(=O)O [ceftazidime, (6R,7R)-7-[[(2Z)-2-(2-amino-1,3-thiazol-4-yl)-2-(1-hydroxy-2-methyl-1-oxopropan-2-yl)oxyiminoacetyl]amino]-8-oxo-3-(pyridin-1-ium-1-ylmethyl)-5-thia-1-azabicyclo[4.2.0]oct-2-ene-2-carboxylate pentahydrate]
[1]; isolate PSA 1-25, control 0 h 6.21, 24 h 10.01
  Change log CFU Mean: 6.42 log CFU
[1]; isolate PSA 3-9, control 0 h 6.45, 24 h 7.77
  Change log CFU Mean: 6.48 log CFU
[1]; isolate PSA 4-32, control 0 h 5.56, 24 h 9.34
  Change log CFU Mean: 3.57 log CFU
[1]; isolate PSA 4-36, control 0 h 6.53, 24 h 9.72
  Change log CFU Mean: 5.01 log CFU
[1]; isolate PSA 4-84, control 0 h 6.16, 24 h 9.66
  Change log CFU Mean: 4.88 log CFU
[1]; isolate PSA 8-16, control 0 h 5.93, 24 h 9.94
  Change log CFU Mean: 5.38 log CFU
[1]; isolate PSA 22, control 0 h 5.99, 24 h 9.15
  Change log CFU Mean: 4.83 log CFU
[1]; isolate PSA 28-19, control 0 h 6.46, 24 h 9.8
  Change log CFU Mean: 5.07 log CFU
[1]; isolate PSA 37-8, control 0 h 6.02, 24 h 8.26
  Change log CFU Mean: 3.8 log CFU
[2]; with Col, isolate 16 P. aeruginosa Basal MICs
  Mean FICI: 1.24
[2]; with Col, isolate 17 P. aeruginosa Derepressed AmpC
  Mean FICI: 1.21
[2]; with Col, isolate 18 P. aeruginosa Derepressed AmpC
  Mean FICI: 1.23
[2]; with Col, isolate 19 P. aeruginosa PER
  Mean FICI: 1.43
[2]; with Col, isolate 20 P. aeruginosa KPC-2
  Mean FICI: 1.21
[2]; with Col, isolate 21 P. aeruginosa KPC-2
  Mean FICI: 1.34
[2]; with Lev, isolate 16 P. aeruginosa Basal MICs
  Mean FICI: 1.19
[2]; with Lev, isolate 17 P. aeruginosa Derepressed AmpC
  Mean FICI: 1.10
[2]; with Lev, isolate 18 P. aeruginosa Derepressed AmpC
  Mean FICI: 1.21
[2]; with Lev, isolate 19 P. aeruginosa PER
  Mean FICI: 0.99
[2]; with Lev, isolate 20 P. aeruginosa KPC-2
  Mean FICI: 1.13
[2]; with Lev, isolate 21 P. aeruginosa KPC-2
  Mean FICI: 1.12
[2]; with Tig, isolate 16 P. aeruginosa Basal MICs
  Mean FICI: 1.05
[2]; with Tig, isolate 17 P. aeruginosa Derepressed AmpC
  Mean FICI: 1.23
[2]; with Tig, isolate 18 P. aeruginosa Derepressed AmpC
  Mean FICI: 1.15
[2]; with Tig, isolate 19 P. aeruginosa PER
  Mean FICI: 1.13
[2]; with Tig, isolate 20 P. aeruginosa KPC-2
  Mean FICI: 1.40
[2]; with Tig, isolate 21 P. aeruginosa KPC-2
  Mean FICI: 1.23
[2]; with Tob, isolate 16 P. aeruginosa Basal MICs
  Mean FICI: 1.11
[2]; with Tob, isolate 17 P. aeruginosa Derepressed AmpC
  Mean FICI: 1.05
[2]; with Tob, isolate 18 P. aeruginosa Derepressed AmpC
  Mean FICI: 0.89
[2]; with Tob, isolate 19 P. aeruginosa PER
  Mean FICI: 0.70
[2]; with Tob, isolate 20 P. aeruginosa KPC-2
  Mean FICI: 0.97
[2]; with Tob, isolate 21 P. aeruginosa KPC-2
  Mean FICI: 0.97
[3]; with Col, isolate 4 E. coli Basal MICs
  Mean FICI: 1.35
[3]; with Col, isolate 5 E. coli CTX-M-15
  Mean FICI: 1.23
[3]; with Col, isolate 6 E. coli TEM-4
  Mean FICI: 1.26
[3]; with Col, isolate 7 E. coli SHV-12
  Mean FICI: 1.66
[3]; with Col, isolate 8 E. coli SHV-2
  Mean FICI: 1.54
[3]; with Lev, isolate 5 E. coli CTX-M-15
  Mean FICI: 1.05
[3]; with Lev, isolate 6 E. coli TEM-4
  Mean FICI: 1.05
[3]; with Lev, isolate 7 E. coli SHV-12
  Mean FICI: 1.18
[3]; with Lev, isolate 8 E. coli SHV-2
  Mean FICI: 1.11
[3]; with Tig, isolate 4 E. coli Basal MICs
  Mean FICI: 1.41
[3]; with Tig, isolate 5 E. coli CTX-M-15
  Mean FICI: 1.12
[3]; with Tig, isolate 6 E. coli TEM-4
  Mean FICI: 1.27
[3]; with Tig, isolate 7 E. coli SHV-12
  Mean FICI: 0.95
[3]; with Tig, isolate 8 E. coli SHV-2
  Mean FICI: 1.10
[3]; with Tob, isolate 5 E. coli CTX-M-15
  Mean FICI: 1.05
[3]; with Tob, isolate 6 E. coli TEM-4
  Mean FICI: 0.99
[3]; with Tob, isolate 7 E. coli SHV-12
  Mean FICI: 1.19
[3]; with Tob, isolate 8 E. coli SHV-2
  Mean FICI: 0.91
[4]; with Lev, isolate 22 S. aureus Basal MICs
  Mean FICI: 0.98
[4]; with Lev, isolate 23 S. aureus Basal MICs, Penicillinase+
  Mean FICI: 1.46
[4]; with Lev, isolate 24 S. aureus Basal MICs, Penicillinase +
  Mean FICI: 1.21
[4]; with Lzd, isolate 22 S. aureus Basal MICs
  Mean FICI: 1.43
[4]; with Lzd, isolate 23 S. aureus Basal MICs, Penicillinase+
  Mean FICI: 1.10
[4]; with Lzd, isolate 24 S. aureus Basal MICs, Penicillinase +
  Mean FICI: 1.32
[4]; with Tig, isolate 22 S. aureus Basal MICs
  Mean FICI: 1.13
[4]; with Tig, isolate 23 S. aureus Basal MICs, Penicillinase+
  Mean FICI: 1.27
[4]; with Tig, isolate 24 S. aureus Basal MICs, Penicillinase +
  Mean FICI: 1.11
[4]; with Tob, isolate 22 S. aureus Basal MICs
  Mean FICI: 1.60
[4]; with Tob, isolate 23 S. aureus Basal MICs, Penicillinase+
  Mean FICI: 0.86
[4]; with Tob, isolate 24 S. aureus Basal MICs, Penicillinase +
  Mean FICI: 0.84
[4]; with Van, isolate 22 S. aureus Basal MICs
  Mean FICI: 1.23
[4]; with Van, isolate 23 S. aureus Basal MICs, Penicillinase+
  Mean FICI: 0.99
[4]; with Van, isolate 24 S. aureus Basal MICs, Penicillinase +
  Mean FICI: 1.24
[5]; with Col, isolate 10 K. pneumoniae TEM-4
  Mean FICI: 0.85
[5]; with Col, isolate 11 K. pneumoniae CTX-M-15
  Mean FICI: 1.54
[5]; with Col, isolate 12 K. pneumoniae SHV-12
  Mean FICI: 1.40
[5]; with Col, isolate 14 K. pneumoniae KPC-3
  Mean FICI: 1.05
[5]; with Lev, isolate 9 K. pneumoniae Basal MICs
  Mean FICI: 0.96
[5]; with Lev, isolate 10 K. pneumoniae TEM-4
  Mean FICI: 1.13
[5]; with Tig, isolate 11 K. pneumoniae CTX-M-15
  Mean FICI: 0.94
[5]; with Tig, isolate 12 K. pneumoniae SHV-12
  Mean FICI: 0.97
[5]; with Tig, isolate 13 K. pneumoniae KPC-3
  Mean FICI: 1.99
[5]; with Tig, isolate 14 K. pneumoniae KPC-3
  Mean FICI: 0.74
[5]; with Tob, isolate 9 K. pneumoniae Basal MICs
  Mean FICI: 1.55
[5]; with Tob, isolate 10 K. pneumoniae TEM-4
  Mean FICI: 0.64
[5]; with Tob, isolate 11 K. pneumoniae CTX-M-15
  Mean FICI: 1.05
[5]; with Tob, isolate 12 K. pneumoniae SHV-12
  Mean FICI: 1.04
[5]; with Tob, isolate 13 K. pneumoniae KPC-3
  Mean FICI: 1.12
[5]; with Tob, isolate 14 K. pneumoniae KPC-3
  Mean FICI: 0.91
[5]; with Tob, isolate 15 K. pneumoniae KPC-2
  Mean FICI: 1.05
[6]; with Col, isolate 2 E. cloacae Derepressed AmpC
  Mean FICI: 1.54
[6]; with Col, isolate 3 E. cloacae Derepressed AmpC
  Mean FICI: 1.12
[6]; with Lev, isolate 2 E. cloacae Derepressed AmpC
  Mean FICI: 0.99
[6]; with Lev, isolate 3 E. cloacae Derepressed AmpC
  Mean FICI: 0.81
[6]; with Tig, isolate 2 E. cloacae Derepressed AmpC
  Mean FICI: 0.93
[6]; with Tig, isolate 3 E. cloacae Derepressed AmpC
  Mean FICI: 1.05
[6]; with Tob, isolate 3 E. cloacae Derepressed AmpC
  Mean FICI: 0.73
[7]; with Lev, isolate 25 E. faecalis Basal MICs
  Mean FICI: 1.15
[7]; with Lev, isolate 26 E. faecalis Basal MICs
  Mean FICI: 1.20
[7]; with Lev, isolate 27 E. faecalis Basal MICs
  Mean FICI: 0.78
[7]; with Lzd, isolate 25 E. faecalis Basal MICs
  Mean FICI: 1.72
[7]; with Lzd, isolate 26 E. faecalis Basal MICs
  Mean FICI: 0.99
[7]; with Lzd, isolate 27 E. faecalis Basal MICs
  Mean FICI: 1.64
[7]; with Tig, isolate 25 E. faecalis Basal MICs
  Mean FICI: 1.19
[7]; with Tig, isolate 26 E. faecalis Basal MICs
  Mean FICI: 0.73
[7]; with Tig, isolate 27 E. faecalis Basal MICs
  Mean FICI: 1.16
[7]; with Tob, isolate 25 E. faecalis Basal MICs
  Mean FICI: 0.84
[7]; with Tob, isolate 26 E. faecalis Basal MICs
  Mean FICI: 0.74
[7]; with Tob, isolate 27 E. faecalis Basal MICs
  Mean FICI: 0.99
[7]; with Van, isolate 25 E. faecalis Basal MICs
  Mean FICI: 1.63
[7]; with Van, isolate 26 E. faecalis Basal MICs
  Mean FICI: 1.18
[7]; with Van, isolate 27 E. faecalis Basal MICs
  Mean FICI: 1.38
